The test system of one experiment is A-375. Description: Antiproliferative activity against human A-375 cells harboring BRAF V600E mutant assessed as reduction in cell growth. It is filed as functional, cell-based.
In experiment [1] the target is Vascular endothelial growth factor receptor 2 (Homo sapiens, UniProt P35968). Description: Inhibition of human recombinant VEGFR2 by FRET based Z-LYTE kinase assay.
Chain of Vascular endothelial growth factor receptor 2 (P35968 whole entry): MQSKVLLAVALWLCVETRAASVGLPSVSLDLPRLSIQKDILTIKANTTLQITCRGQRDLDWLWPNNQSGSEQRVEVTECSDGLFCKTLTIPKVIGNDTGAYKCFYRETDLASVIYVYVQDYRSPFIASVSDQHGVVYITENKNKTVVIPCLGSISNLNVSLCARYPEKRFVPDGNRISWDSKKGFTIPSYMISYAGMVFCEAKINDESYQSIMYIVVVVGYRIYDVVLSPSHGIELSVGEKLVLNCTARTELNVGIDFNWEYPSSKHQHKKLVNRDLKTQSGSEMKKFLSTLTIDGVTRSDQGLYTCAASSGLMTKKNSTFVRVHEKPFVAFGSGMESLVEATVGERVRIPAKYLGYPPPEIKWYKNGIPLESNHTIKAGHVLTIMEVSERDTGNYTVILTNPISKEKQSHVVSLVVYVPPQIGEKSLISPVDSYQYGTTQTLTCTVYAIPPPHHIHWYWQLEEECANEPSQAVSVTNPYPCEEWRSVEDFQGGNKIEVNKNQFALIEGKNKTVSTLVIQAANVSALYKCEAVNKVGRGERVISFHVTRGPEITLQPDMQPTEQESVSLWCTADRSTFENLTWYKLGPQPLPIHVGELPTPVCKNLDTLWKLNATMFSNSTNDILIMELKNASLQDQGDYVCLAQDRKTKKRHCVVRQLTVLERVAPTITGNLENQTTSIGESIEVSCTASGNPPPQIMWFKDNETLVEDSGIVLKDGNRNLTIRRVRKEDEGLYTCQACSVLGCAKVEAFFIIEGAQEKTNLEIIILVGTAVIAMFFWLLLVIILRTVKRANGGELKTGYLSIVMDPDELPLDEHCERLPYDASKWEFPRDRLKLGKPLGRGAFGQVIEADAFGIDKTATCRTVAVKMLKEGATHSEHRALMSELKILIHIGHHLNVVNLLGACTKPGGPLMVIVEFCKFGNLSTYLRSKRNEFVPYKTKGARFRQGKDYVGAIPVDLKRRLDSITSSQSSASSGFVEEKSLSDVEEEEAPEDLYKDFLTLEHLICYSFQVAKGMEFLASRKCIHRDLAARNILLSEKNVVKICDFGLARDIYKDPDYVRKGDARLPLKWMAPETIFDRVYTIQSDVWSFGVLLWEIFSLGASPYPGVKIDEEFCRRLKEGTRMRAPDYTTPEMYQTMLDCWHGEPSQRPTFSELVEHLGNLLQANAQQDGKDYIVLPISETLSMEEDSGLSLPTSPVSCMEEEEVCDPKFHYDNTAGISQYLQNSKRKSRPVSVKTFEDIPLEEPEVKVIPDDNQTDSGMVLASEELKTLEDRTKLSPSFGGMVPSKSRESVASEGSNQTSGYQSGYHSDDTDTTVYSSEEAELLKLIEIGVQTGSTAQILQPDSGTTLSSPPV

Take `COC(=O)N[C@@H](C)CNc1nccc(-c2cn(C(C)C)nc2-c2cc(Cl)cc(NS(C)(=O)=O)c2F)n1` [ENCORAFENIB]: in the experiment on A-375, the EC50 worked out at 4 nM.
Turning to `CNC(=O)c1c(C)oc2cc(Oc3ncnc4cc(OC)c(OC)cc34)ccc12` [FRUQUINTINIB], in experiment [1], the IC50 came to 0.35 nM.
